Test results as given in PMC10058238 (Science Advances, 2023).

Assays:
Format in all cases: biochemical
[1] = biological target: T1, AtSPT-ORM1 complex (LCB1, LCB2a, SPTssa, ORM1) (Arabidopsis thaliana, UniProt Q94IB8+Q9C5I0+Q9LSZ9); assay: SPT activity, DTNB detection of CoA-SH release, […] nm
T1 construct: full-length codon-optimized cDNAs; N-terminal Flag on SPTssa, other chains untagged; HEK293F, GDN; dimer of 1:1:1:1 protomers; endogenous ceramide copurifies; with Long chain base biosynthesis protein 1; Serine palmitoyltransferase small subunit A
T1 sequence (Q9C5I0 1-157, one chain of several): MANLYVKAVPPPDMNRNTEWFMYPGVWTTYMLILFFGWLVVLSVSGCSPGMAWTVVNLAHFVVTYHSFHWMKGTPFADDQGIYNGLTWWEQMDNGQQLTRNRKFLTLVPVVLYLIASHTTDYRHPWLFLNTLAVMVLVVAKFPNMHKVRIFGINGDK

[2] = biological target: T2, AtSPT-ORM1 complex (LCB1, LCB2a, SPTssa, ORM1) (Arabidopsis thaliana, UniProt Q94IB8+Q9C5I0+Q9LSZ9, Q9C5I0:DEL2-8); assay: as above
T2 construct: full-length codon-optimized cDNAs; N-terminal Flag on SPTssa, other chains untagged; HEK293F, GDN; dimer of 1:1:1:1 protomers; endogenous ceramide copurifies; with Long chain base biosynthesis protein 1; Serine palmitoyltransferase small subunit A
T2 sequence (Q9C5I0 entry or part of it DEL2-8, one chain of several): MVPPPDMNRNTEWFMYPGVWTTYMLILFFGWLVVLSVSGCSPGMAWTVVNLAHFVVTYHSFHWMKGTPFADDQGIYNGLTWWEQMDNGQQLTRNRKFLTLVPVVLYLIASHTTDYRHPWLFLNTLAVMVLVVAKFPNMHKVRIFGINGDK

[3] = biological target: T3, AtSPT-ORM1 complex (LCB1, LCB2a, SPTssa, ORM1) (Arabidopsis thaliana, UniProt Q94IB8+Q9C5I0+Q9LSZ9, Q9C5I0:W20R); assay: as above; conditions: saturating 100 mM L-serine, 100 μM palmitoyl-CoA, 25 μM PLP, pH 7.5, 30 °C; ceramide site
T3 construct: full-length codon-optimized cDNAs; N-terminal Flag on SPTssa, other chains untagged; HEK293F, GDN; dimer of 1:1:1:1 protomers; endogenous ceramide copurifies; with Long chain base biosynthesis protein 1; Serine palmitoyltransferase small subunit A
T3 sequence (Q9C5I0 1-157 W20R, one chain of several): as the sequence (Q9C5I0 1-157, one chain of several) above, with W20R counted along it

[4] = biological target: T4, AtSPT-ORM1 complex (LCB1, LCB2a, SPTssa, ORM1) (Arabidopsis thaliana, UniProt Q94IB8+Q9C5I0+Q9LSZ9, Q9C5I0:W88R); assay: as above; conditions: saturating 100 mM L-serine, 100 μM palmitoyl-CoA, 25 μM PLP, pH 7.5, 30 °C; ceramide site
T4 construct: full-length codon-optimized cDNAs; N-terminal Flag on SPTssa, other chains untagged; HEK293F, GDN; dimer of 1:1:1:1 protomers; endogenous ceramide copurifies; with Long chain base biosynthesis protein 1; Serine palmitoyltransferase small subunit A
T4 sequence (Q9C5I0 1-157 W88R, one chain of several): as the sequence (Q9C5I0 1-157, one chain of several) above, with W88R counted along it

[5] = biological target: T5, AtSPT-ORM1 complex (LCB1, LCB2a, SPTssa, ORM1) (Arabidopsis thaliana, UniProt Q94IB8+Q9C5I0+Q9LSZ9, Q9C5I0:S67R); assay: as above
T5 construct: full-length codon-optimized cDNAs; N-terminal Flag on SPTssa, other chains untagged; HEK293F, GDN; dimer of 1:1:1:1 protomers; endogenous ceramide copurifies; with Long chain base biosynthesis protein 1; Serine palmitoyltransferase small subunit A
T5 sequence (Q9C5I0 1-157 S67R, one chain of several): as the sequence (Q9C5I0 1-157, one chain of several) above, with S67R counted along it

[6] = biological target: T6, AtSPT-ORM1 complex (LCB1, LCB2a, SPTssa, ORM1) (Arabidopsis thaliana, UniProt Q94IB8+Q9C5I0+Q9LSZ9, Q9C5I0:DEL2-14); assay: as above; conditions: saturating 100 mM L-serine, 100 μM palmitoyl-CoA, 25 μM PLP, pH 7.5, 30 °C; ceramide site
T6 construct: full-length codon-optimized cDNAs; N-terminal Flag on SPTssa, other chains untagged; HEK293F, GDN; dimer of 1:1:1:1 protomers; endogenous ceramide copurifies; with Long chain base biosynthesis protein 1; Serine palmitoyltransferase small subunit A
T6 sequence (Q9C5I0 entry or part of it DEL2-14, one chain of several): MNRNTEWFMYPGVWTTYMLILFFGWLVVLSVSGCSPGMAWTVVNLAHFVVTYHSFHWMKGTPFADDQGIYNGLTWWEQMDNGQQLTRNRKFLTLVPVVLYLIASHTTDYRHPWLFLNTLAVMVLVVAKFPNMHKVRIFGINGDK

[7] = biological target: T7, AtSPT-ORM1 complex (LCB1, LCB2a, SPTssa, ORM1) (Arabidopsis thaliana, UniProt Q94IB8+Q9C5I0+Q9LSZ9, Q9LSZ9:DEL2-5); assay: as above
T7 construct: full-length codon-optimized cDNAs; N-terminal Flag on SPTssa, other chains untagged; HEK293F, GDN; dimer of 1:1:1:1 protomers; endogenous ceramide copurifies; with Long chain base biosynthesis protein 1; Serine palmitoyltransferase small subunit A
T7 sequence (Q9LSZ9 with tags, fused parts or gaps DEL2-5, one chain of several): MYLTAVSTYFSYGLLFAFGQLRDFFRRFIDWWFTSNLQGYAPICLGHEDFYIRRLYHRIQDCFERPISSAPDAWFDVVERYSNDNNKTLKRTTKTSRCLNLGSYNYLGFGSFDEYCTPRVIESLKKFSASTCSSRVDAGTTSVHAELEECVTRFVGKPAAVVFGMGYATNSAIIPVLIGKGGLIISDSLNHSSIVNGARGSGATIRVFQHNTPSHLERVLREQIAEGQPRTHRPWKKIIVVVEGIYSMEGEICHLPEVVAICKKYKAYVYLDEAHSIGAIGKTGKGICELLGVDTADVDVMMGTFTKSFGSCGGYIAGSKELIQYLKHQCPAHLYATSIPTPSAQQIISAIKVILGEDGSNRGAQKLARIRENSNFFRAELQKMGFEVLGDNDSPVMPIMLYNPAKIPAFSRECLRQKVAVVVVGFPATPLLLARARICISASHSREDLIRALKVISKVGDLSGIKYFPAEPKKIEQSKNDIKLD
T7 sequence (Q9C5I0 1-157, stated change not applied, one chain of several): as the sequence (Q9C5I0 1-157, one chain of several) above

[8] = biological target: T8, AtSPT-ORM1 complex (LCB1, LCB2a, SPTssa, ORM1) (Arabidopsis thaliana, UniProt Q94IB8+Q9C5I0+Q9LSZ9, Q9C5I0:N17A/Q9C5I0:S67R); assay: as above; conditions: saturating 100 mM L-serine, 100 μM palmitoyl-CoA, 25 μM PLP, pH 7.5, 30 °C; ceramide site
T8 construct: full-length codon-optimized cDNAs; N-terminal Flag on SPTssa, other chains untagged; HEK293F, GDN; dimer of 1:1:1:1 protomers; endogenous ceramide copurifies; with Long chain base biosynthesis protein 1; Serine palmitoyltransferase small subunit A
T8 sequence (Q9C5I0 1-157 N17A/S67R, one chain of several): as the sequence (Q9C5I0 1-157, one chain of several) above, with N17A, S67R counted along it

[9] = biological target: T9, AtSPT-ORM1 complex (LCB1, LCB2a, SPTssa, ORM1) (Arabidopsis thaliana, UniProt Q94IB8+Q9C5I0+Q9LSZ9, Q9C5I0:N17A); assay: as above
T9 construct: full-length codon-optimized cDNAs; N-terminal Flag on SPTssa, other chains untagged; HEK293F, GDN; dimer of 1:1:1:1 protomers; endogenous ceramide copurifies; with Long chain base biosynthesis protein 1; Serine palmitoyltransferase small subunit A
T9 sequence (Q9C5I0 1-157 N17A, one chain of several): as the sequence (Q9C5I0 1-157, one chain of several) above, with N17A counted along it

[10] = biological target: T9, AtSPT-ORM1 complex (LCB1, LCB2a, SPTssa, ORM1); assay: SPT activity, DTNB detection of CoA-SH release, […] nm; sigmoidal fit; conditions: 100 mM L-serine, 25 μM PLP, pH 7.5, 30 °C; active site in LCB2a/LCB1
[11] = biological target: T6, AtSPT-ORM1 complex (LCB1, LCB2a, SPTssa, ORM1); assay: as above; conditions: 100 mM L-serine, 25 μM PLP, pH 7.5, 30 °C; active site in LCB2a/LCB1
[12] = biological target: T10, AtSPT complex (LCB1, LCB2a, SPTssa) (Arabidopsis thaliana, UniProt Q94IB8+Q9LSZ9); assay: SPT activity, DTNB detection of CoA-SH release, […] nm; conditions: 100 mM L-serine, 100 μM palmitoyl-CoA, 25 μM PLP, pH 7.5, 30 °C; active site in LCB2a/LCB1
T10 construct: full-length codon-optimized cDNAs; N-terminal Flag on SPTssa, other chains untagged; HEK293F, GDN; without ORM1; with Serine palmitoyltransferase small subunit A
T10 sequence (Q9LSZ9 1-489): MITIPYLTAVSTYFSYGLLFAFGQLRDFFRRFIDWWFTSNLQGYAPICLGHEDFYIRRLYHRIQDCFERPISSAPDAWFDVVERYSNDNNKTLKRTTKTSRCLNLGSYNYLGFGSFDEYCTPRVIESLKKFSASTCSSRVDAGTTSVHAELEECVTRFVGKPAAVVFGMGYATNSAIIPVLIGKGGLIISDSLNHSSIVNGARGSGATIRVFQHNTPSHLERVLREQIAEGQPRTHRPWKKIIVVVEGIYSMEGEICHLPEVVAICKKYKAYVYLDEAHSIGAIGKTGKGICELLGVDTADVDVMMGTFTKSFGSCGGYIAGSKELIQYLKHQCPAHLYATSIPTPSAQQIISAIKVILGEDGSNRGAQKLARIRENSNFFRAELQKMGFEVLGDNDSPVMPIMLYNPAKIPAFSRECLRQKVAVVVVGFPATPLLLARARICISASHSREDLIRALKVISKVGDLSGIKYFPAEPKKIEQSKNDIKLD
T10 sequence (Q94IB8 1-482): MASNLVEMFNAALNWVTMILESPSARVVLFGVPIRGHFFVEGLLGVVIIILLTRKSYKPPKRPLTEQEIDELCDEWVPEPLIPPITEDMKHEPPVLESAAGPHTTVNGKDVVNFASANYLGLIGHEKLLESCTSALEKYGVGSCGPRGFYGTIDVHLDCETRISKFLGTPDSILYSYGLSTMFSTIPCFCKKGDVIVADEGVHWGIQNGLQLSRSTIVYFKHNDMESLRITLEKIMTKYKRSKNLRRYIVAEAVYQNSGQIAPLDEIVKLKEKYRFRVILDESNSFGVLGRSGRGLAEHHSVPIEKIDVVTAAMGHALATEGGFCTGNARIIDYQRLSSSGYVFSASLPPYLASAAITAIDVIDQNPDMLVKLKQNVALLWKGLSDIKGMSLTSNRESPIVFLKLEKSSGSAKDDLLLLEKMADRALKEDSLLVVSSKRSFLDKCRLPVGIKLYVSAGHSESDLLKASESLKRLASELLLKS
T10 sequence (A8MSB8 1-56 partner): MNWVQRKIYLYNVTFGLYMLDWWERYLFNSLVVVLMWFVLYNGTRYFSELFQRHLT

[13] = biological target: T1, AtSPT-ORM1 complex (LCB1, LCB2a, SPTssa, ORM1); assay: as above; conditions: 100 mM L-serine, 100 μM palmitoyl-CoA, 25 μM PLP, pH 7.5, 30 °C; active site in LCB2a/LCB1

`CCCCCCCCCCCCC/C=C/[C@@H](O)[C@H](CO)NC(=O)CCCCC` [C6-ceramide] gave an IC50 [1] of 3500 nM.
With `CCCCCCCCCCCCCC[C@@H](O)[C@@H](O)[C@H](CO)NC(=O)CCCCC` [C6-phytoceramide] the IC50 [2] was 1280 nM, the “SPT activity, DTNB detection of CoA-SH release, 412 nm” value (“SPT activity, DTNB detection” below) [3] was “ORM1-W20R or ORM1-W88R mutation also virtually abolished the inhibitory effect of C6-phytoceramide” and the “SPT activity, DTNB detection” value [4] was “ORM1-W20R or ORM1-W88R mutation also virtually abolished the inhibitory effect of C6-phytoceramide”. For the same compound, the IC50 [5] was 1260 nM, the “SPT activity, DTNB detection” value [6] was “basically eliminated the inhibitory effect of C6-phytoceramide” and the IC50 [1] was 320 nM. The IC50 [7] was 990 nM, the “SPT activity, DTNB detection” value [8] was “ORM1-N17A/S67R double mutation nearly eliminated the inhibitory effect of C6-phytoceramide” and the IC50 [9] was 1680 nM.
`CCCCCCCCCCCCCCCC(=O)SCCNC(=O)CCNC(=O)[C@H](O)C(C)(C)COP(=O)(O)OP(=O)(O)OC[C@H]1O[C@@H](n2cnc3c(N)ncnc32)[C@H](O)[C@@H]1OP(=O)(O)O` [palmitoyl-CoA] was tested, and the Khalf [10] was “the Khalf value of the variant toward palmitoyl-CoA was nearly seven times as high” and the Khalf [11] was “the Khalf value of the AtSPT-ORM1 (ORM1-ΔN14) variant toward palmitoyl-CoA was much lower”.
In the case of `CCCCCCC(=O)CCCCCC/C=C/C[C@@H](O)[C@H](O)[C@@](N)(CO)C(=O)O` [myriocin], the “inhibition at 10 μM” value [12] is reported as “can be repressed by a potent SPT-specific inhibitor myriocin” and the “inhibition at 10 μM” value [13] is reported as “can be repressed by a potent SPT-specific inhibitor myriocin”.
